Experimental data published in patent US7531567B2, “Use of a medicament containing an effector of the glutathione metabolism together with α-lipoic acid in kidney replacement therapy” (Serumwerk Bernburg AG, priority 2001, dated 2009).

Key:
Type in all cases: cell-based, human
[1] = test system: lymphocytes (peripheral immune cells); assay: intracellular thiol expression of peripheral immune cells (CMFDA flow cytofluorimetry); conditions: for intracellular thiol expression: α-lipoic acid 50 μM, captopril 10 μM, combination at the same concentrations
Method: Peripheral immune cells of healthy donors (n=9) were isolated from the peripheral blood by means of density gradient centrifugation. Lymphocytes having a donor-dependent relative proportion of about 90% in this case normally represent the main fraction of the resulting total population of mononuclear cells. 10% of the mononuclear cells are represented by monocytes. The mononuclear cells obtained were taken up in special cell culture media and incubated in a gas incubator at 37° C., a relative humidity of 98% and 5% relative air-CO2 content. The metabolism of the primarily resting immune cells was activated by means of mitogenic stimulation (0.5 μg/ml of phytohemagglutinin). In order to test the influence of the combinations used according to the invention on the thiol status of thiol-deficient immune cells, these were artificially thiol-depleted. This was carried out by culturing in thiol-deficient media (RPMI 1603) according to tested procedures. Comparison cultures using whole media (RPMI 1640) served for the definition of the best possible normal value under culture conditions. […] Primarily nonfluorogenic CMFDA is in this case passively taken up by the cell. Binding to cytoplasmic thiol groups takes place via the chloromethyl radical. After removal of the acetate radicals by nonspecific cellular esterases, this, now cell membrane-impermeable complex becomes fluorogenic at an excitation wavelength λex=490 nm with an emission wavelength λem=520 nm. The mean fluorescence intensity of the sample (10,000 cells) is directly proportional to the concentration of the intracellular thiol groups. In FIG. 1, the action of the combination of α-lipoic acid and ambroxole (FIG. 1a) and α-lipoic acid and enalapril (FIG. 1b) on the intracellular thiol expression of lymphocytes is shown. […] The data are shown as the ratio of the cellular fluorescence intensity for calibration particles (beads) in each case analyzed in parallel. The active compound concentration of the respective combination is identical to the concentrations of the individual components.

T lymphocytes = assay: activation markers CD69, CD25, CD71 of phytohemagglutinin-stimulated T lymphocytes; conditions: thiol-deficient cells, culture period of 72 hours, FIG. 3
Method: In the culture batch described under example 1, human T lymphocytes were stimulated with […] of phyto-hemagglutinin. […] The influence of the combinations used according to the invention on the activation markers CD69 (early activation antigen), CD25 (intermediate activation antigen) and CD71 (late activation antigen) of T lymphocytes was investigated. In FIG. 3, the action of the combination of α-lipoic acid and ambroxole (FIG. 3a), and α-lipoic acid and enalapril (FIG. 3b) on the activation index of T lymphocytes is shown. Compared with normal T lymphocytes (activation index=1.0), in thiol-deficient cells a clear lowering of the activatability, confirming the cellular functional disorder, is to be noted. […] It can thus be concluded that the normalization of the cellular thiol status mediated by the combined use of α-lipoic acid and the respective effectors of the glutathione metabolism is accompanied by a restitution of the cellular functionality.

peritoneal macrophages [2] = assay: phagocytic ability of peritoneal macrophages (fluorochrome-labelled bacteria); conditions: treatment period of 6 days
Method: Peritoneal macrophages were isolated analogously to the procedure described under example 3 and cultured ex vivo. The determination of the phagocytic power was carried out by means of a cytofluorometric test at the individual cell level. In this test, the macrophages were cocultured with opsonized and fluorochrome-labelled bacteria. The amount of bacteria taken up in a defined time period was recorded quantitatively by means of the fluorescence intensity in the macrophages and was regarded as a measure of their phagocytic capacity. The influence of the combinations used according to the invention on the phagocytic ability of the peritoneal macrophages after a treatment period of 6 days is presented in Table 3.

peritoneal macrophages [3] = assay: stability of membrane-bound thiol restitution in peritoneal macrophages in the dialysis model; conditions: dialysis model over 14 days; FIG. 7
Method: (§1) The peritoneal macrophages described under example 3, which were thiol-restituted by means of the combinations used according to the invention, were removed from this test system after 6 days and cultured in a dialysis model over a period of 14 days. For this, the peritoneal macrophages were adapted to mobile collagen IV-coated matrices and brought into contact with conventional dialysis solution 3 times daily for 60 minutes each. This model served here for the induction of a combined […]/osmotic stress. In FIG. 6, the action of the combination of α-lipoic acid and ambroxole (FIG. 6a), and α-lipoic acid and enalapril (FIG. 6b) on the intracellular thiol expression of the peritoneal macrophages in the time kinetics is presented. The membrane expression of thiols was determined by means of the mean fluorescence intensity (mfi) of the sample (3000 cells/measurement) after coupling to a chloro-methylfluorochrome derivative.

peritoneal macrophages [4] = assay: stability of intracellular thiol restitution in peritoneal macrophages in the dialysis model
Method: as §1

peripheral immune cells = assay: membrane-bound thiol expression of peripheral immune cells (CMTMR flow cytofluorimetry); conditions: α-lipoic acid 50 μM, captopril 10 μM, combination at the same concentrations
Method: Peripheral immune cells of healthy donors (n=9) were isolated from the peripheral blood by means of density gradient centrifugation. Lymphocytes having a donor-dependent relative proportion of about 90% in this case normally represent the main fraction of the resulting total population of mononuclear cells. 10% of the mononuclear cells are represented by monocytes. The mononuclear cells obtained were taken up in special cell culture media and incubated in a gas incubator at 37° C., a relative humidity of 98% and 5% relative air-CO2 content. The metabolism of the primarily resting immune cells was activated by means of mitogenic stimulation (0.5 μg/ml of phytohemagglutinin). In order to test the influence of the combinations used according to the invention on the thiol status of thiol-deficient immune cells, these were artificially thiol-depleted. This was carried out by culturing in thiol-deficient media (RPMI 1603) according to tested procedures. Comparison cultures using whole media (RPMI 1640) served for the definition of the best possible normal value under culture conditions. The expression of membrane-bound thiol groups was likewise determined by flow cytofluorimetry. In this connection, chloromethyltetramethylrhodamine (CMTMR) was employed as a thiol conjugate under the conditions of a blocked membrane potential and of an inhibited diffusion capacity of the cells. The fluorescence intensity of the bound fluorochrome molecules on the cell membrane is in this case in turn proportional to the amount of the thiol groups on the cell surface.

O=C(O)CCCCC1CCSS1 (stereo not drawn) [α-lipoic acid]
intracellular thiol expression ([1]; culture period 0 d): 2.88 ± 0.20 mfiBeads/Ratio
intracellular thiol expression ([1]; culture period 1 d): 2.81 ± 0.23 mfiBeads/Ratio
intracellular thiol expression ([1]; culture period 2 d): 2.76 ± 0.50 mfiBeads/Ratio
intracellular thiol expression ([1]; culture period 3 d): 2.63 ± 0.60 mfiBeads/Ratio
intracellular thiol expression ([1]; culture period 4 d): 2.41 ± 0.40 mfiBeads/Ratio
intracellular thiol expression ([1]; culture period 6 d): 2.23 ± 0.50 mfiBeads/Ratio
intracellular thiol expression ([1]; culture period 8 d): 2.02 ± 0.30 mfiBeads/Ratio
intracellular thiol expression ([1]; culture period 10 d): 1.89 ± 0.30 mfiBeads/Ratio
intracellular thiol expression ([1]; culture period 12 d): 1.86 ± 0.68 mfiBeads/Ratio
intracellular thiol expression ([1]; culture period 14 d): 1.83 ± 0.60 mfiBeads/Ratio
effect on the intracellular thiol deficit (in words) ([1]; thiol-deficient conditions (1603), FIG. 1): Neither by α-lipoic acid alone nor by the individual application of the effectors was a complete equalization of the thiol deficit possible
effect on the activation index of T lymphocytes (in words) (T lymphocytes): slight improvement in the cellular activatability
increase in the phagocytosis rate in relation to the untreated control, factor (peritoneal macrophages [2]): 1.85
Phagocytosis rate (peritoneal macrophages [2]; α-lipoic acid 50 μM, ambroxole 10 μM, enalapril 5 μM, captopril 10 μM): 687 ± 59 mfi/10,000 cells
membrane-bound thiol expression in the dialysis model (in words) (peritoneal macrophages [3]): intermediate
action relative to the action of the combinations (peritoneal macrophages [4]; after about 4 days in the dialysis model): approximately 50%
intracellular thiol status in the dialysis model (in words) (peritoneal macrophages [4]; dialysis model over 14 days, FIG. 6): only short-lasting
Membrane-bound thiol expression (peripheral immune cells; culture period 0 d): 2.37 ± 0.45 mfiBeads/Ratio
Membrane-bound thiol expression (peripheral immune cells; culture period 1 d): 2.65 ± 0.39 mfiBeads/Ratio
Membrane-bound thiol expression (peripheral immune cells; culture period 2 d): 2.43 ± 0.52 mfiBeads/Ratio
Membrane-bound thiol expression (peripheral immune cells; culture period 3 d): 2.31 ± 0.36 mfiBeads/Ratio
Membrane-bound thiol expression (peripheral immune cells; culture period 4 d): 2.26 ± 0.20 mfiBeads/Ratio
Membrane-bound thiol expression (peripheral immune cells; culture period 6 d): 2.19 ± 0.13 mfiBeads/Ratio
Membrane-bound thiol expression (peripheral immune cells; culture period 8 d): 1.93 ± 0.20 mfiBeads/Ratio
Membrane-bound thiol expression (peripheral immune cells; culture period 10 d): 1.63 ± 0.16 mfiBeads/Ratio
Membrane-bound thiol expression (peripheral immune cells; culture period 12 d): 1.32 ± 0.21 mfiBeads/Ratio
Membrane-bound thiol expression (peripheral immune cells; culture period 14 d): 1.34 ± 0.20 mfiBeads/Ratio
